Assay results: patent publication US4477463A, “Antiinflammatory and/or analgesic 1-alkyl-4,5-diaryl-2-fluoroalkyl-1H-pyrroles” (E. I. Du Pont de Nemours and Company, priority 1982, dated 1984)
Read-outs that look alike come from different tables or passages of the source.

Columns and labels:
[1] = tested on: adjuvant-induced arthritis in rats; assay: Established Adjuvant-Induced Arthritis in Rats; assay type: in vivo, Charles River Lewis male rats; settings: for ED50: Rattus norvegicus, read-out: Adjuvant Arthritic ED50; for percent reduction in paw volume: at 9 mg/kg
[2] = tested on: phenylquinone-induced writhing in mice; assay: Phenylquinone Writhing Test; assay type: in vivo, female white mice; settings: Mus musculus, read-out: Phenylquinone Writhing (PQW) ED50
Method: Phenylquinone Writhing Test
A test compound suspended in 1% methylcellulose was given orally to fasted (17-21 hours) female white mice, 5-20 animals per double blind test. Aqueous (0.01% phenyl-p-benzoquinone) phenylquinone, 0.20 ml per mouse, was injected intraperitoneally 6 minutes before observations were begun.

[3] = ED50% decrease from control paw volume (uninjected, left hind paw), oral, daily for 7 days, read one day after last dose
[4] = effective analgesic dose for 50% of the mice, oral, 0.01% phenylquinone 0.20 ml i.p.
[5] = oral, daily for 7 days, read one day after last dose

Row | Structure (SMILES) | ED50 [1, 3] | ED50 [2, 4] | percent reduction in paw volume [1, 5] | ED50 ([1]; po) | ED50 ([2]; po)
1 | CSc1ccc(-c2c(-c3ccc(F)cc3)cc(C(F)(F)F)n2C)cc1 [Example 6, 4-(4-fluorophenyl)-1-methyl-5-(4-methylthiophenyl)-2-trifluoromethyl-1H-pyrrole] | 1.8 mg/kg | 16 mg/kg | – | – | –
2 | COc1ccc(-c2cc(C(F)(F)C(F)(F)F)n(C)c2-c2ccc(OC)cc2)cc1 [Example 2, 4,5-bis(4-methoxyphenyl)-1-methyl-2-pentafluoroethyl-1H-pyrrole] | – | 1.8 mg/kg | 32% | – | –
3 | CC(=O)Oc1ccccc1C(=O)O [Aspirin, reference compound] | – | – | – | 305 mg/kg | 135 mg/kg
4 | CCn1c(C(F)(F)F)cc(-c2ccc(OC)cc2)c1-c1ccc(OC)cc1 [Example 3] | 18 mg/kg | 47 mg/kg | – | – | –
5 | Cn1c(C(F)(F)F)cc(-c2ccc(F)cc2)c1-c1ccc(S(C)(=O)=O)cc1 [Example 7, 4-(4-fluorophenyl)-1-methyl-5-(4-methylsulfonylphenyl)-2-trifluoromethyl-1H-pyrrole] | 3.5 mg/kg | – | – | – | –
6 | CC(C)Cc1ccc(C(C)C(=O)O)cc1 (stereo not shown) [Ibuprofen, reference compound] | 100 mg/kg | 10 mg/kg | – | – | –
7 | COc1ccc(-c2cc(C(F)(F)F)n(C)c2-c2ccc(OC)cc2)cc1 [Example 1, 4,5-Bis(4-methoxyphenyl)-1-methyl-2-trifluoromethyl-1H-pyrrole] | 1.25 mg/kg | 16 mg/kg | – | – | –
8 | Cc1ccc(-c2cc(C(F)(F)F)n(C)c2-c2ccc(C)cc2)cc1 [Example 5] | – | 18 mg/kg | 28% | – | –
9 | COc1ccc2c(c1)c(CC(=O)O)c(C)n2C(=O)c1ccc(Cl)cc1 [Indomethacin, reference compound] | – | – | – | 0.3 mg/kg | 0.35 mg/kg
10 | Cn1c(C(F)(F)F)cc(-c2ccc(Cl)cc2)c1-c1ccc(Cl)cc1 [Example 4] | – | – | 29% | – | –
11 | CCCCC1C(=O)N(c2ccccc2)N(c2ccccc2)C1=O [Phenylbutazone, reference compound] | 10 mg/kg | 80 mg/kg | – | – | –
12 | CSc1ccc(-c2cc(C(F)(F)F)n(C)c2-c2ccc(SC)cc2)cc1 [Example 8, 1-methyl-4,5-bis(4-methylthiophenyl)-2-trifluoromethyl-1H-pyrrole] | 1.8 mg/kg | > 108 mg/kg | – | – | –
